38 molecules from patent US10919885B2, “Compounds and uses thereof” (Yumanity Therapeutics, Inc., priority 2018, dated 2021) can be followed below.

One test deals with human SCD1 (Homo sapiens (Human), UniProt O00767). Put plainly: Yeast growth assay, strain expressing human SCD1 as the sole desaturase (reduced growth as surrogate for SCD inhibition). It is filed as cell-based. As to conditions: yeast with OLE1 deleted expressing human SCD1 from a plasmid; growth read as OD600 after 40 h at 30° C.; top drug concentration 33.3 μM. An outline of the steps:
(§1)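 Yeast lacking OLE1 depend on plasmid-borne human SCD1 or SCD5 and are tested in SD-Ura medium without oleic/palmitoleic acid or Tween.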

A further test deals with human SCD5 (Homo sapiens (Human), UniProt Q86SK9). Put plainly: Yeast growth assay, strain expressing human SCD5 as the sole desaturase (reduced growth as surrogate for SCD inhibition). It is filed as cell-based. Conditions: yeast with OLE1 deleted expressing human SCD5 from a plasmid; growth read as OD600 after 40 h at 30° C.; top drug concentration 33.3 μM. The method in brief: as §1
Chain of human SCD5 (Q86SK9 whole entry): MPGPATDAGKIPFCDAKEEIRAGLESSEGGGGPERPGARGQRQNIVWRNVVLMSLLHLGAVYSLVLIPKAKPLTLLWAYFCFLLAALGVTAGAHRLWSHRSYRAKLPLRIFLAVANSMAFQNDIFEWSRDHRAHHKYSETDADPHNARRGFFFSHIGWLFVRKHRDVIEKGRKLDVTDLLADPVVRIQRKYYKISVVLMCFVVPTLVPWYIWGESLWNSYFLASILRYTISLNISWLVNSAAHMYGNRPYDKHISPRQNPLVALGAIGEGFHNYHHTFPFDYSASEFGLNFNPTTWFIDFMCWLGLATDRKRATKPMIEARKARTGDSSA

The term pIC50 denotes −log10 of the IC50, conventionally taken in molar units. A low value points to a large IC50.

pIC50: −log10 of the molar value.

Chain of human SCD1 (O00767 whole entry): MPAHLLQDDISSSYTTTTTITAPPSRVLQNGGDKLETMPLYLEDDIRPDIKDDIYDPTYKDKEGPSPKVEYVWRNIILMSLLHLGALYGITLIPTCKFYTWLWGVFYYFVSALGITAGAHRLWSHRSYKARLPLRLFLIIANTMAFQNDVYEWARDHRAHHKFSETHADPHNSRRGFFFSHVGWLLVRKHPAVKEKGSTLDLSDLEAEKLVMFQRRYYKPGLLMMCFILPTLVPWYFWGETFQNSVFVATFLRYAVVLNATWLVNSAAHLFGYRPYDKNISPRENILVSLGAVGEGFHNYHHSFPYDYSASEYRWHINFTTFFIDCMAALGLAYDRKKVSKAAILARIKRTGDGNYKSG

With `O=C(c1cc(-c2ccco2)on1)N1CC(c2ccccc2)C1` [Compound 207, [5-(2-furyl)isoxazol-3-yl]-(3-phenylazetidin-1-yl)methanone], the pIC50 against human SCD1 is 5.59; against human SCD5 it was 5.94.

With `O=C(Nc1cnn(Cc2ccc(Cl)c(Cl)c2)c1)c1cc(-c2ccco2)on1` [Compound 29], the pIC50 against human SCD1 and against human SCD5 was < 4.35 in each case.

Consider `O=C(Nc1cn(Cc2ccccc2)nc1C(F)(F)F)c1cc(-c2ccccc2)on1` [Compound 82], for which the pIC50 on human SCD1 and against human SCD5 was < 4.35 in each case.

Take `O=C(c1cc(-c2ccco2)on1)N1CC(F)C1` [Compound 244]: the pIC50 on human SCD1 and on human SCD5 was < 4.35 throughout.

As to `N#Cc1nn(Cc2ccccc2)cc1NC(=O)c1cc(-c2ccccc2)on1` [Compound 68], the pIC50 against human SCD1 and against human SCD5 was < 4.35 in each case.

Turning to `O=C(Nc1cnn(Cc2ccccc2)c1)c1cc(-c2cccc(F)c2)on1` [Compound 144], the pIC50 against human SCD1 and at human SCD5 was < 4.35 each time.

Consider `O=C(c1cc(-c2ccc3c(c2)OCO3)on1)N1CC(Cc2ccccc2)C1` [Compound 216, [5-(1,3-benzodioxol-5-yl)isoxazol-3-yl]-(3-benzylazetidin-1-yl)methanone], for which the pIC50 was < 4.35 at human SCD1 and 5.95 against human SCD5.

With `O=C(Nc1cnn(Cc2cc(F)ccc2C(F)(F)F)c1)c1cc(-c2ccccn2)on1` [Compound 77], the pIC50 on human SCD1 and against human SCD5 was < 4.35 throughout.

On to `CC(C)c1cc(C(=O)N2CC(c3ccccc3)C2)no1` [Compound 250], for which the pIC50 against human SCD1 and against human SCD5 was < 4.35 throughout.

For `COc1ccc(C2CCCN2C(=O)c2cc(-c3ccc(F)c(F)c3)on2)cc1` (stereo not shown) [Compound 378], the pIC50 on human SCD1 and against human SCD5 was < 4.35 in each case.

For the molecule `O=C(c1cc(-c2ccc3c(c2)OCO3)on1)N1CCN(c2ccc(F)cc2)CC1` [Compound 279], the pIC50 at human SCD1 and against human SCD5 was < 4.35 each time.

For `O=C(c1cc(-c2ccc3c(c2)OCO3)on1)N1CCCc2ccccc21` [Compound 261], the pIC50 against human SCD1 and at human SCD5 was < 4.35 throughout.

As to `O=C(c1cc(-c2ccccc2)on1)N1CCC2(CCNC2)C1` (stereo not shown) [Compound 340], the pIC50 against human SCD1 and against human SCD5 was < 4.35 each time.

Regarding `Cc1cnc(-c2cc(C(=O)Nc3cnn(Cc4ccccc4)c3)no2)s1` [Compound 142], the pIC50 against human SCD1 and against human SCD5 was < 4.35 each time.

In the case of `COc1ccc(C2CCCN2C(=O)c2cc(-c3ccccc3)on2)cc1` (stereo not shown) [Compound 377], the pIC50 at human SCD1 and against human SCD5 was < 4.35 throughout.

In the case of `O=C(c1cc(-c2ccco2)on1)N1CC(Cc2ccccc2)C1` [Compound 205, (3-benzylazetidin-1-yl)-[5-(2-furyl)isoxazol-3-yl]methanone], the values for the pIC50 at human SCD1 and on human SCD5 were 6.64 and 6.20, respectively.

For `O=C(c1cc(-c2ccc3c(c2)OCO3)on1)N1CC(Oc2ccccc2)C1` [Compound 208], the pIC50 on human SCD1 and against human SCD5 was < 4.35 throughout.

As for `CS(=O)(=O)CC(c1ccccc1)n1cc(NC(=O)c2cc(-c3ccccc3)on2)cn1` (stereo not shown) [Compound 80], the pIC50 on human SCD1 and against human SCD5 was < 4.35 each time.

In the case of `O=C(Nc1cnn(Cc2ccccc2)c1)c1cc(-c2cccc3c2cnn3C2COC2)on1` [Compound 97], the pIC50 against human SCD1 and on human SCD5 was < 4.35 each time.

For the molecule `N#Cc1ccc(-c2cc(C(=O)Nc3cnn(Cc4ccccc4)c3)no2)cc1` [Compound 128], the pIC50 is 6.01 on human SCD1 and < 4.35 at human SCD5.

Consider `O=C(Nc1cnn(Cc2cccc(F)c2)c1)c1cc(C2COC2)on1` [Compound 139, N-(1-(3-fluorobenzyl)-1H-pyrazol-4-yl)-5-(oxetan-3-yl)isoxazole-3-carboxamide], for which the results for the pIC50 against human SCD1 and at human SCD5 were 6.13 and 5.16, respectively.

For `O=C(c1cc(-c2ccc3c(c2)OCO3)on1)N1CC2(C1)CC(O)(c1ccccc1)C2` [Compound 224], the pIC50 is < 4.35 against human SCD1 and 6.02 at human SCD5.

As to `O=C(c1cc(-c2ccc3c(c2)OCO3)on1)N1C[C@H](O)C[C@H]1c1ccccc1` [Compound 422], the pIC50 on human SCD1 and on human SCD5 was < 4.35 in each case.

For the molecule `O=C(Nc1cnn(Cc2cccc(F)c2)c1)c1cc(-c2ccon2)on1` [Compound 72], the results for the pIC50 on human SCD1 and against human SCD5 were 7.08 and < 4.35, respectively.

Turning to `O=C(c1cc(-c2ccc3c(c2)OCO3)on1)N1CCn2ccnc2C1` [Compound 269], the negative-log IC50 (pIC50) at human SCD1 and at human SCD5 was < 4.35 each time.

Turning to `O=C(c1cc(-c2ccccc2)on1)N1CC(Oc2ccccc2)C1` [Compound 213], the pIC50 on human SCD1 is 6.31; at human SCD5, < 4.35.

Consider `Cc1nn(C)c2cc(-c3cc(C(=O)N4CCN(c5ccccc5)CC4)no3)ccc12` [Compound 278], for which the pIC50 at human SCD1 and against human SCD5 was < 4.35 each time.

`CSCC(c1ccccc1)n1cc(NC(=O)c2cc(-c3ccccc3)on2)cn1` (stereo not shown) [Compound 73]: the pIC50 against human SCD1 and at human SCD5 was < 4.35 throughout.

`Cn1cc2ccc(-c3cc(C(=O)N4CC(c5ccccc5)C4)no3)cc2n1` [Compound 235, (5-(2-methyl-2H-indazol-6-yl)isoxazol-3-yl)(3-phenylazetidin-1-yl)methanone]: the pIC50 on human SCD1 was < 4.35; at human SCD5, 5.29.

For `O=C(c1cc(-c2ccc3c(c2)OCO3)on1)N1CCN(c2cccc(F)c2)CC1` [Compound 282], the pIC50 against human SCD1 and at human SCD5 was < 4.35 in each case.

As for `Nc1cc(C(=O)Nc2cnn(Cc3ccccc3)c2)no1` [Compound 192], the pIC50 against human SCD1 and on human SCD5 was < 4.35 throughout.

In the case of `COc1ccncc1Cn1cc(NC(=O)c2cc(-c3ccccc3F)on2)cn1` [Compound 173], the pIC50 against human SCD1 and on human SCD5 was < 4.35 each time.

For `O=C(Nc1cnn(Cc2ccccc2)c1)c1cc(-c2ccncc2Cl)on1` [Compound 134, N-(1-benzyl-1H-pyrazol-4-yl)-5-(3-chloropyridin-4-yl)isoxazole-3-carboxamide], the pIC50 is 5.27 on human SCD1 and 5.30 against human SCD5.

`O=C(c1cc(-c2ccc3c(c2)OCO3)on1)N1CCC(c2ccccc2)CC1` [Compound 275, [5-(1,3-benzodioxol-5-yl)isoxazol-3-yl]-(4-phenyl-1-piperidyl)methanone]: the pIC50 was < 4.35 on human SCD1 and 5.95 on human SCD5.

As for `O=C(c1cc(-c2ccccn2)on1)N(Cc1ccc(F)c(F)c1)c1cnn(Cc2ccc(F)c(F)c2)c1` [Compound 62, N-(3,4-difluorobenzyl)-N-(1-(3,4-difluorobenzyl)-1H-pyrazol-4-yl)-5-(pyridin-2-yl)isoxazole-3-carboxamide], the pIC50 against human SCD1 is < 4.35; against human SCD5 it was 4.48.

`COc1ccc(-c2cc(NC(=O)[C@@H]3CCCN3c3ccccc3)on2)cc1` [Compound 445]: the pIC50 on human SCD1 and on human SCD5 was < 4.35 each time.

For `Cc1nnc(-c2cc(C(=O)Nc3cnn(Cc4ccccc4)c3)no2)o1` [Compound 165], the pIC50 against human SCD1 and against human SCD5 was < 4.35 in each case.

For the molecule `N#Cc1ccccc1-c1cc(C(=O)N2CCC(c3ccccc3)CC2)no1` [Compound 326, 2-(3-(4-phenylpiperidine-1-carbonyl)isoxazol-5-yl)benzonitrile], the results for the pIC50 at human SCD1 and against human SCD5 were < 4.35 and 5.24, respectively.
